Assay results: patent US20230312528A1, “2-OXO-IMIDAZOLIDINE-4-CARBOXAMIDES AS NAV1.8 INHIBITORS” (Merck Sharp & Dohme LLC, priority 2020, published 2023)

Target: human NaV1.8 (Homo sapiens (Human), UniProt Q9Y5Y9)
Test: Nav1.8 Qube automated patch-clamp assay
Type: cell-based
Conditions: human NaV1.8 stably expressed in HEK 293 cells; automated 384-well patch-clamp; resting or inactivated state not specified
Experimental: Compounds were tested on human NaV1.8 and NaV1.5 channels stably expressed in human embryo kidney (HEK) 293 cells. Sodium current measurements on Qube® were conducted as follows: automated 384-well patch-clamp assays on the Qube® platform (Sophion Biosciences) were used to measure the inhibition of sodium flow through human NaV1.8 and NaV1.5 channels. Whole-cell voltage-clamp recordings were performed in QChips® (Sophion Biosciences) at room temperature. NaV1.8 current measurements on Qube® were obtained as follows: NaV1.8 currents were elicited with a 10 second 1 Hertz (Hz) pulse train from a holding potential of −90 millivolts (mV), delivered to the cells once per minute in the control condition (DMSO only) and after compound addition. The 1 hertz pulse train stimulation consisted of ten test pulses to 10 millivolt (mV) for 20 milliseconds (ms), each of which was followed by a 980 millisecond repolarization to −67 millivolts. At the end of the 10 second pulse train stimulation, a 5 second hyperpolarization step to −100 millivolt (mV) was used to recover NaV1.8 from fast inactivation. The peak currents elicited by the 1st and 10th test pulses were used to determine IC50 values for resting inhibition and inactivated state inhibition. NaV1.5 current measurements on Qube® were obtained as follows: NaV1.5 currents were elicited with a 20 second 3 Hertz pulse train in the control condition (DMSO only) and after compound addition. The pulse train consisted of sixty 20 millisecond test pulses to 0 millivolt from a holding potential of −80 millivolt (mV). The average peak currents elicited by the last 3 test pulses were used to determine IC50 values for NaV1.5 inhibition.
The following buffers were used for the Qube® recordings: External buffer for NaV1.8 Qube® recording: 150 NaCl, 2 CaCl2, 5 KCl, 1 Mg Cl2, 10 HEPES, 12 Dextrose; External buffer for Qube® NaV1.5 recording: 120 N-Methyl-D-Glucamine, 40 NaCl, 1 KCl, 2.7 CaCl2, 5 HEPES, 0.5 MgCl2; and Internal buffer for Qube® recording: 120 CsF, 30 CsCl, 10 EGTA, 5 HEPES, 5 NaF, 2 MgCl2.
For all Qube® experiments offline analysis was used to determine percent inhibition as a function of drug concentration. IC50 values were determined by fitting to the Hill equation.

human NaV1.8, sequence (Q9Y5Y9 whole entry): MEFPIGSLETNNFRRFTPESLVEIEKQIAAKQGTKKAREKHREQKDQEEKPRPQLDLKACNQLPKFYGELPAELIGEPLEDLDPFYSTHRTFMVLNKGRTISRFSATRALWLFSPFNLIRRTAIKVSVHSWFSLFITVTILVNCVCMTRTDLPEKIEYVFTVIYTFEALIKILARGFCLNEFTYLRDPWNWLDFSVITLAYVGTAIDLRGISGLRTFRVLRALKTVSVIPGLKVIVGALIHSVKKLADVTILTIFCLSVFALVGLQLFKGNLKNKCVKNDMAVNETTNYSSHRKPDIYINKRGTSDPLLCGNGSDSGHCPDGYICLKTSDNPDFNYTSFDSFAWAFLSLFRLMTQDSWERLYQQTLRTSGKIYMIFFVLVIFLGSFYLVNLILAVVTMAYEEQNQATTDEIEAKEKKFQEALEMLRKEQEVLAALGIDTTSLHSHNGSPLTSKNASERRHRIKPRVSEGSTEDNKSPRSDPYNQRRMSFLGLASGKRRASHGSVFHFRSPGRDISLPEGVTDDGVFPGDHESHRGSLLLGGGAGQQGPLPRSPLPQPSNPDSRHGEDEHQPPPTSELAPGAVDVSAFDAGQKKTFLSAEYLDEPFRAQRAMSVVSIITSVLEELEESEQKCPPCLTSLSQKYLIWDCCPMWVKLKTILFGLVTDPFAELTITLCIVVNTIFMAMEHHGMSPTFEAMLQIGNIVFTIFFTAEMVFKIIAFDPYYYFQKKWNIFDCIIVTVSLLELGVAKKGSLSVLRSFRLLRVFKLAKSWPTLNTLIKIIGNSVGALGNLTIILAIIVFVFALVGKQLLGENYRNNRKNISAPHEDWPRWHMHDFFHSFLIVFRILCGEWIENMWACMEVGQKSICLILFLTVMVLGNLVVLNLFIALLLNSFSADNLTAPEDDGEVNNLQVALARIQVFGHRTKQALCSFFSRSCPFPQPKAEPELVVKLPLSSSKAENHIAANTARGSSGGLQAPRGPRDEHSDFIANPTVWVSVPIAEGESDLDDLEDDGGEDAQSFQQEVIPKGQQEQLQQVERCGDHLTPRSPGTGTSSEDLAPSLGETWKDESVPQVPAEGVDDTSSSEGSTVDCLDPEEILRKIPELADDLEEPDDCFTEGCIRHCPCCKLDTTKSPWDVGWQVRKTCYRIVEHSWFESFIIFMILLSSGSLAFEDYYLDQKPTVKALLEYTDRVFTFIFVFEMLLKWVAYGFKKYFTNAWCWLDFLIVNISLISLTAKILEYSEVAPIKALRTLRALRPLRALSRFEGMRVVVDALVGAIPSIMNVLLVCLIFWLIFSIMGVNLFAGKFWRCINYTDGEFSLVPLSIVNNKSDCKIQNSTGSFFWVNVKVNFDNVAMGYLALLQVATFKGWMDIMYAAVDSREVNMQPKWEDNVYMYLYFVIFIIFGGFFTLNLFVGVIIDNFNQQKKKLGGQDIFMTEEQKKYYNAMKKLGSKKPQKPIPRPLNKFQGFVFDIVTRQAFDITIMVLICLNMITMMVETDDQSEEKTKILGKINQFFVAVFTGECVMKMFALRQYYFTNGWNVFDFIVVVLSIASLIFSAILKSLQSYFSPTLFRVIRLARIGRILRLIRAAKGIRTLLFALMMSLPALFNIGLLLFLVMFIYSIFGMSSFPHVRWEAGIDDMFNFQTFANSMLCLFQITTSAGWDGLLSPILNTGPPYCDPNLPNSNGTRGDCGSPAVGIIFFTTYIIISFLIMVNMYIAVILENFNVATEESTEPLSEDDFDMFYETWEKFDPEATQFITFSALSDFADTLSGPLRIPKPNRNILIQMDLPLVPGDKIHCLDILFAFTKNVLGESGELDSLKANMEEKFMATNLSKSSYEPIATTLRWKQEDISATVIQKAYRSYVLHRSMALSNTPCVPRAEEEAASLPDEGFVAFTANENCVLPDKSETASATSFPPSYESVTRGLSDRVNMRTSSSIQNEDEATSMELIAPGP

SMILES	IC50 [nM]
O=C1NC[C@@H](C(=O)NC(c2ccc(OC(F)(F)F)nc2)c2ccc(F)c(Cl)c2F)N1 (single isomer, unassigned) [Example 24A, (4S)-N-{(R or S)-(3-chloro-2,4-difluorophenyl)[6-(trifluoromethoxy)pyridin-3-yl]methyl}-2-oxoimidazolidine-4-carboxamide]	3.1
O=C1NC[C@@H](C(=O)NC(c2ccc(OC(F)(F)F)nc2)c2ccc(F)c(Cl)c2F)N1 (single isomer, unassigned) [Example 24B, (4S)-N-{(R or S)-(3-chloro-2,4-difluorophenyl)[6-(trifluoromethoxy)pyridin-3-yl]methyl}-2-oxoimidazolidine-4-carboxamide]	41
O=C1NC[C@@H](C(=O)NC(CC2CCC(F)(F)CC2)c2ccc(F)c(Cl)c2F)N1 (single isomer, unassigned) [Example 25A, (S)-N-((R or S)-1-(3-chloro-2,4-difluorophenyl)-2-(4,4-difluorocyclohexyl)ethyl)-2-oxoimidazolidine-4-carboxamide]	22
O=C1NC[C@@H](C(=O)NC(CC2CCC(F)(F)CC2)c2ccc(F)c(Cl)c2F)N1 (single isomer, unassigned) [Example 25B, (S)-N-((R or S)-1-(3-chloro-2,4-difluorophenyl)-2-(4,4-difluorocyclohexyl)ethyl)-2-oxoimidazolidine-4-carboxamide]	189
O=C1NC[C@@H](C(=O)NC(CC2CCCOC2)c2ccc(F)c(Cl)c2F)N1 (single isomer, unassigned) [Example 26A, (S)-N-((R or S)-1-(3-chloro-2,4-difluorophenyl)-2-((R or S)-tetrahydro-2H-pyran-3-yl)ethyl)-2-oxoimidazolidine-4-carboxamide]	413
O=C1NC[C@@H](C(=O)NC(CC2CCCOC2)c2ccc(F)c(Cl)c2F)N1 (single isomer, unassigned) [Example 26B, (S)-N-((R or S)-1-(3-chloro-2,4-difluorophenyl)-2-((R or S)-tetrahydro-2H-pyran-3-yl)ethyl)-2-oxoimidazolidine-4-carboxamide]	22200
O=C1NC[C@@H](C(=O)NC(CC2CCCOC2)c2ccc(F)c(Cl)c2F)N1 (single isomer, unassigned) [Example 26C, (S)-N-((R or S)-1-(3-chloro-2,4-difluorophenyl)-2-((R or S)-tetrahydro-2H-pyran-3-yl)ethyl)-2-oxoimidazolidine-4-carboxamide]	386
O=C1NC[C@@H](C(=O)NC(CC2CCCOC2)c2ccc(F)c(Cl)c2F)N1 (single isomer, unassigned) [Example 26D, (S)-N-((R or S)-1-(3-chloro-2,4-difluorophenyl)-2-((R or S)-tetrahydro-2H-pyran-3-yl)ethyl)-2-oxoimidazolidine-4-carboxamide]	7830
O=C1NC[C@@H](C(=O)NC(c2ccc(F)c(Cl)c2F)C23CC(C(F)(F)F)(C2)C3)N1 (single isomer, unassigned) [Example 27A, (4S)—N—((R or S)-(3-chloro-2,4-difluorophenyl)(3-(trifluoromethyl)bicyclo[1.1.1]pentan-1-yl)methyl)-2-oxoimidazolidine-4-carboxamide]	5.8
O=C1NC[C@@H](C(=O)NC(c2ccc(F)c(Cl)c2F)C23CC(C(F)(F)F)(C2)C3)N1 (single isomer, unassigned) [Example 27B, (4S)—N—((R or S)-(3-chloro-2,4-difluorophenyl)(3-(trifluoromethyl)bicyclo[1.1.1]pentan-1-yl)methyl)-2-oxoimidazolidine-4-carboxamide]	244
O=C1NC[C@@H](C(=O)NC(c2ccc(F)c(Cl)c2)c2ccn(CC(F)(F)F)n2)N1 (single isomer, unassigned) [Example 28A, (4S)-N-{(R or S)-(3-chloro-4-fluorophenyl)[1-(2,2,2-trifluoroethyl)-1H-pyrazol-3-yl]methyl}-2-oxoimidazolidine-4-carboxamide]	633
O=C1NC[C@@H](C(=O)NC(c2ccc(F)c(Cl)c2)c2ccn(CC(F)(F)F)n2)N1 (single isomer, unassigned) [Example 28B, (4S)-N-{(R or S)-(3-chloro-4-fluorophenyl)[1-(2,2,2-trifluoroethyl)-1H-pyrazol-3-yl]methyl}-2-oxoimidazolidine-4-carboxamide]	436

Now from value to molecule:

IC50 [nM]	SMILES
110	O=C1NC[C@@H](C(=O)NC(COC2CCC(F)(F)CC2)c2ccc(F)c(Cl)c2)N1 (single isomer, unassigned) [Example 29A, (4S)-N-{1-((R or S)-3-chloro-4-fluorophenyl)-2-[(4,4-difluoro-cyclohexyl)oxy]ethyl}-2-oxoimidazolidine-4-carboxamide]
161	O=C1NC[C@@H](C(=O)NC(COC2CCC(F)(F)CC2)c2ccc(F)c(Cl)c2)N1 (single isomer, unassigned) [Example 29B, (4S)-N-{1-((R or S)-3-chloro-4-fluorophenyl)-2-[(4,4-difluoro-cyclohexyl)oxy]ethyl}-2-oxoimidazolidine-4-carboxamide]
4.6	CC1(C)CC(C(NC(=O)[C@@H]2CNC(=O)N2)c2ccc(F)c(Cl)c2F)C1 (single isomer, unassigned) [Example 30A, (4S)-N-[(R or S)-(3-chloro-2,4-di-fluoro-phenyl)(3,3-dimethylcyclobutyl)meth-yl]-2-oxoimidazolidine-4-carboxamide]
458	CC1(C)CC(C(NC(=O)[C@@H]2CNC(=O)N2)c2ccc(F)c(Cl)c2F)C1 (single isomer, unassigned) [Example 30B, (4S)-N-[(R or S)-(3-chloro-2,4-di-fluorophenyl)(3,3-dimethylcyclobutyl)meth-yl]-2-oxoimidazolidine-4-carboxamide]
5.2	Cn1nc(C(F)(F)F)cc1C(NC(=O)[C@@H]1CNC(=O)N1)c1ccc(F)c(Cl)c1 (single isomer, unassigned) [Example 31A, (S)-N-((R or S)-(3-chloro-4-fluorophenyl)(1-methyl-3-(tri-fluoromethyl)-1H-pyrazol-5-yl)methyl)-2-oxoimidazolidine-4-carboxamide]
268	Cn1nc(C(F)(F)F)cc1C(NC(=O)[C@@H]1CNC(=O)N1)c1ccc(F)c(Cl)c1 (single isomer, unassigned) [Example 31B, (S)-N-((R or S)-(3-chloro-4-fluorophenyl)(1-methyl-3-(tri-fluoromethyl)-1H-pyrazol-5-yl)methyl)-2-oxoimidazolidine-4-carboxamide]
3.4	O=C1NC[C@@H](C(=O)NC(c2ccc(F)c(Cl)c2)[C@H]2CC[C@H](C(F)(F)F)CC2)N1 (single isomer, unassigned) [Example 32A, (4S)—N—((R or S)-(3-chloro-4-fluorophenyl)(trans-4-(trifluoromethyl)cyclohexyl)methyl)-2-oxoimidazolidine-4-carboxamide]
67	O=C1NC[C@@H](C(=O)NC(c2ccc(F)c(Cl)c2)[C@H]2CC[C@H](C(F)(F)F)CC2)N1 (single isomer, unassigned) [Example 32B, (4S)—N—((R or S)-(3-chloro-4-fluorophenyl)(trans-4-(trifluoro-methyl)cyclohexyl)methyl)-2-oxoimidazolidine-4-carboxamide]
1.3	O=C1NC[C@@H](C(=O)NC(c2ccc(OCC(F)(F)F)nc2)c2ccc(F)c(Cl)c2F)N1 (single isomer, unassigned) [Example 33A, (S)—N—((R or S)-(3-chloro-2,4-difluorophenyl)(6-(2,2,2-trifluoroethoxy)pyridin-3-yl)methyl)-2-oxoimidazolidine-4-carboxamide]
39	O=C1NC[C@@H](C(=O)NC(c2ccc(OCC(F)(F)F)nc2)c2ccc(F)c(Cl)c2F)N1 (single isomer, unassigned) [Example 33B, (S)—N—((R or S)-(3-chloro-2,4-difluorophenyl)(6-(2,2,2-trifluoroethoxy)pyridin-3-yl)methyl)-2-oxoimidazolidine-4-carboxamide]
3.8	O=C1NC[C@@H](C(=O)NC(c2ccc(F)c(Cl)c2F)[C@H]2C[C@H](C(F)(F)F)C2)N1 (single isomer, unassigned) [Example 34A, (S)—N—((R or S)-(3-chloro-2,4-difluorophenyl)(trans-3-(trifluoromethyl)cyclobutyl)methyl)-2-oxoimidazolidine-4-carboxamide]
76	O=C1NC[C@@H](C(=O)NC(c2ccc(F)c(Cl)c2F)[C@H]2C[C@H](C(F)(F)F)C2)N1 (single isomer, unassigned) [Example 34B, (S)—N—((R or S)-(3-chloro-2,4-difluorophenyl)(trans-3-(trifluoromethyl)cyclobutyl)methyl)-2-oxoimidazolidine-4-carboxamide]
